Test results taken from patent US10829520B2, “Beta-hairpin peptidomimetics” (POLYPHOR AG, priority 2015, dated 2020).
Where a SMILES comes first, the peptide text is derived from it. Bridges are numbered along the chain shown (N, C = ends). Roman numbers before positions name the chains, in order. [ ]: non-standard residue; d: D form. Ala(cPent) = N[C@@H](CC1CCCC1)C(=O)O; Tle = CC(C)(C)[C@H](N)C(=O)O; dDab = NCC[C@@H](N)C(=O)O; Nle = CCCC[C@H](N)C(=O)O; Orn = NCCC[C@H](N)C(=O)O; Dab = NCC[C@H](N)C(=O)O; Dap = NC[C@H](N)C(=O)O; Sar = CNCC(=O)O

Experiments:
Type in all cases: cell-based
[1] = system: Klebsiella pneumoniae SSI #3010; settings: SSI #3010
In short: (§1)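 Broth microdilution per CLSI, cation-adjusted MH-II medium, 0.002% (v/v) polysorbate 80 final. Approx. 10^6 CFU/mL inoculum, incubated 35° C for 18-20 h; MIC read as absence of visible growth.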

[2] = system: Klebsiella pneumoniae 968733; settings: 968733
[3] = system: Escherichia coli ATCC 25922; settings: ATCC 25922
In short: as §1

Escherichia coli 926415 = settings: 926415
[4] = system: Acinetobacter baumannii DSM 30008; settings: DSM 30008
In short: as §1

[5] = system: Acinetobacter baumannii 872842; settings: 872842
[6] = system: Pseudomonas aeruginosa ATCC 27853; settings: ATCC 27853
In short: as §1

[7] = system: human red blood cells (hRBC); assay: Hemolysis of human red blood cells; settings: red cells of human, 1 h
In short: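 Peptides at 100 μg/mL were incubated with PBS-washed fresh human erythrocytes (20% v/v, ~0.9×10^9 cells/mL final) for 1 h at 37° C. with shaking. Supernatant OD540 was read after 8-fold dilution; percent hemolysis was expressed relative to the 2.5% Triton X-100 full-lysis control, with PBS/0.001% acetic acid as 0%.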

| Compound | Klebsiella pneumoniae SSI #3010 MIC [1] [µg/mL] | Klebsiella pneumoniae 968733 MIC [2] [µg/mL] | Escherichia coli ATCC 25922 MIC [3] [µg/mL] | Escherichia coli 926415 MIC (Escherichia coli 926415) [µg/mL] | Acinetobacter baumannii DSM 30008 MIC [4] [µg/mL] | Acinetobacter baumannii 872842 MIC [5] [µg/mL] | Pseudomonas aeruginosa ATCC 27853 MIC [6] [µg/mL] | Hemolysis at 100 μg/mL [7]; 100 [%] | Hemolysis at 100 μg/mL ([7]; 100 μg/mL) [%] |
| --- | --- | --- | --- | --- | --- | --- | --- | --- | --- |
| CCCC[C@@H]1NC(=O)[C@@H]2CCCN2C(=O)[C@H]2CCCN2C(=O)[C@H](CO)NC(=O)[C@H](C)NC(=O)[C@H](C(C)(C)C)NC(=O)[C@@H](NC(=O)[C@H](Cc2c[nH]c3ccccc23)NC(C)=O)CCC(=O)NCC[C@@H](C(=O)N[C@@H](CCN)C(=O)N[C@H](C(=O)N[C@@H](CCN)C(=O)N[C@H]2CCNC(=O)[C@H]([C@@H](C)O)NC(=O)[C@H](CCN)NC(=O)[C@H](CCN)NC(=O)[C@H](CC(C)C)NC(=O)[C@@H](Cc3ccccc3)NC(=O)[C@H](CCN)NC2=O)[C@@H](C)O)NC(=O)[C@H](Cc2ccc(O)cc2)NC(=O)[C@H](CO)NC1=O [Ex. 14] (Ac-WE[Tle]AS[dP]P[Nle]SY[Dab][Dab]T[Dab][Dab][Dab][dF]L[Dab][Dab]T; lactam 2-11, 15-C) | 1 | 8 | 0.5 | 4 | 0.5 | 1 | 1 | <1 |  |
| CC[C@H](C)[C@@H]1NC(=O)[C@@H]2CCCN2C(=O)[C@H]2CCCN2C(=O)[C@H](Cc2ccc(O)cc2)NC(=O)[C@@H](NC(=O)[C@@H](NC(=O)[C@H](CCN)NC(=O)[C@@H](N)CC(C)C)C(C)C)CSSC[C@@H](C(=O)N[C@@H](Cc2ccc(O)cc2)C(=O)N[C@@H](CCN)C(=O)N(C)CC(=O)N[C@@H](CCN)C(=O)N[C@H](C(=O)N[C@@H](CCN)C(=O)N[C@H]2CCNC(=O)[C@H]([C@@H](C)O)NC(=O)[C@H](CCN)NC(=O)[C@H](CCN)NC(=O)[C@H](CC(C)C)NC(=O)[C@@H](CC(C)C)NC(=O)[C@H](CCN)NC2=O)[C@@H](C)O)NC1=O [Ex. 170] (H-L[Dab]VCY[dP]PICY[Dab][Sar][Dab]T[Dab][Dab][Dab][dL]L[Dab][Dab]T; disulfide 4-9; lactam 16-C) | 1 | 0.5 | 0.5 | 0.25 | 1 | 0.125 | 0.5 |  | 1 |
| CCCC[C@@H]1NC(=O)[C@@H]2CCCN2C(=O)[C@@H](C)NC(=O)[C@H](CO)NC(=O)[C@H](C)NC(=O)[C@H](C(C)(C)C)NC(=O)[C@@H](NC(=O)[C@H](Cc2c[nH]c3ccccc23)NC(C)=O)CSSC[C@@H](C(=O)N[C@@H](CCN)C(=O)N[C@H](C(=O)N[C@@H](CCN)C(=O)N[C@H]2CCNC(=O)[C@H]([C@@H](C)O)NC(=O)[C@H](CCN)NC(=O)[C@H](CCN)NC(=O)[C@H](CC(C)C)NC(=O)[C@@H](Cc3ccccc3)NC(=O)[C@H](CCN)NC2=O)[C@@H](C)O)NC(=O)[C@H](Cc2ccc(O)cc2)NC(=O)[C@H](CO)NC1=O [Ex. 17] (Ac-WC[Tle]AS[dA]P[Nle]SYC[Dab]T[Dab][Dab][Dab][dF]L[Dab][Dab]T; disulfide 2-11; lactam 15-C) | 0.5 | 0.5 | 0.25 | 1.5 | 0.5 | 0.25 | 0.5 |  | 3 |
| CCCC[C@@H]1NC(=O)[C@@H]2CCCN2C(=O)[C@H]2CCCN2C(=O)[C@H](CO)NC(=O)[C@H](C)NC(=O)[C@H](C(C)(C)C)NC(=O)[C@H](CCN)NC(=O)[C@H](Cc2c[nH]c3ccccc23)NC(=O)[C@H](CCN)NC(=O)[C@@H](CCC(=O)N[C@@H](CCN)C(=O)N[C@H]2CCNC(=O)[C@H]([C@@H](C)O)NC(=O)[C@H](CCN)NC(=O)[C@H](CCN)NC(=O)[C@H](CC(C)C)NC(=O)[C@@H](Cc3ccccc3)NC(=O)[C@H](CCN)NC2=O)NC(=O)[C@H](CCCN)NC(=O)[C@H](CCN)NC(=O)[C@H](Cc2ccc(O)cc2)NC(=O)[C@H](CO)NC1=O [Ex. 2] (I: cyclo([Nle]SY[Dab][Orn][dE][Dab]W[Dab][Tle]AS[dP]P) / II: [Dab][Dab][Dab][dF]L[Dab][Dab]T; amide I:6-II:N; lactam II:2-II:C) | 1 | 4 | 0.5 | 2 | 1 | 2 | 0.25 | 1 |  |
| CCCC[C@@H]1NC(=O)[C@@H]2CCCN2C(=O)[C@H]2CCCN2C(=O)[C@H](CO)NC(=O)[C@H](CO)NC(=O)[C@H](C(C)(C)C)NC(=O)[C@@H](NC(=O)[C@@H](N)Cc2c[nH]c3ccccc23)CSSC[C@@H](C(=O)N[C@@H](CCC(=O)O)C(=O)N[C@@H](CCN)C(=O)N[C@@H](CCN)C(=O)N[C@H]2CCNC(=O)[C@H]([C@@H](C)O)NC(=O)[C@H](CCN)NC(=O)[C@H](CCN)NC(=O)[C@H](CC(C)C)NC(=O)[C@@H](Cc3ccccc3)NC(=O)[C@H](CCN)NC2=O)NC(=O)[C@H](Cc2ccc(O)cc2)NC(=O)[C@H](CO)NC1=O [Ex. 108] (H-WC[Tle]SS[dP]P[Nle]SYCE[Dab][Dab][Dab][Dab][dF]L[Dab][Dab]T; disulfide 2-11; lactam 15-C) | 2 | 2 | 1 | 0.5 | 1 | 1 | 1 |  | 2 |
| CCCC[C@@H]1NC(=O)[C@@H]2CCCN2C(=O)[C@H]2CCCN2C(=O)[C@H](CO)NC(=O)[C@H](C)NC(=O)[C@H](C(C)(C)C)NC(=O)[C@@H](NC(=O)[C@H](Cc2c[nH]c3ccccc23)NC(=O)[C@@H](N)CN)CSSC[C@@H](C(=O)N[C@@H](CCN)C(=O)N[C@H](C(=O)N[C@@H](CCN)C(=O)N[C@H]2CCNC(=O)[C@H]([C@@H](C)O)NC(=O)[C@H](CCN)NC(=O)[C@H](CCN)NC(=O)[C@H](CC(C)C)NC(=O)[C@@H](Cc3ccccc3)NC(=O)[C@H](CCN)NC2=O)[C@@H](C)O)NC(=O)[C@H](Cc2ccc(O)cc2)NC(=O)[C@H](CO)NC1=O [Ex. 37] (H-[Dap]WC[Tle]AS[dP]P[Nle]SYC[Dab]T[Dab][Dab][Dab][dF]L[Dab][Dab]T; disulfide 3-12; lactam 16-C) | 0.125 | 2 | 0.125 | 0.5 | 0.125 | 0.5 | 0.5 |  | 2 |
| CC(C)C[C@@H]1NC(=O)[C@@H](CC(C)C)NC(=O)[C@H](CCN)NC(=O)[C@@H](NC(=O)[C@H](CCN)NC(=O)[C@@H](NC(=O)[C@H](CCN)NC(=O)CC[C@@H]2NC(=O)CNC(=O)[C@H](Cc3ccc(O)cc3)NC(=O)[C@H](CO)NC(=O)[C@H](CC(C)C)NC(=O)[C@@H]3CCCN3C(=O)[C@H]3CCCN3C(=O)[C@H](CO)NC(=O)[C@H]([C@@H](C)O)NC(=O)[C@H](C(C)C)NC(=O)[C@H](CCN)NC(=O)[C@H](Cc3c[nH]c4ccccc34)NC(=O)[C@H](CCN)NC(=O)[C@@H](CCN)NC2=O)[C@@H](C)O)CCNC(=O)[C@H]([C@@H](C)O)NC(=O)[C@H](CCN)NC(=O)[C@H](CCN)NC1=O [Ex. 90] (I: cyclo(LSYGE[dDab][Dab]W[Dab]VTS[dP]P) / II: [Dab]T[Dab][Dab][Dab][dL]L[Dab][Dab]T; amide I:5-II:N; lactam II:4-II:C) | 0.125 | 0.25 | 0.125 | 0.25 | 0.125 | 0.25 | 0.25 | 1 |  |
| CC(C)C[C@@H]1NC(=O)[C@@H](Cc2ccccc2)NC(=O)[C@H](CCN)NC(=O)[C@@H](NC(=O)[C@H](CCN)NC(=O)[C@@H](NC(=O)[C@H](CCN)NC(=O)CNC(=O)[C@@H]2CSSC[C@H](NC(=O)[C@@H](N)Cc3c[nH]c4ccccc34)C(=O)N[C@@H](C(C)C)C(=O)N[C@@H](C)C(=O)N[C@@H](CO)C(=O)N3CCC[C@@H]3C(=O)N3CCC[C@H]3C(=O)N[C@@H](CC3CCCC3)C(=O)N[C@@H](CO)C(=O)N[C@@H](Cc3ccc(O)cc3)C(=O)N2)[C@@H](C)O)CCNC(=O)[C@H]([C@@H](C)O)NC(=O)[C@H](CCN)NC(=O)[C@H](CCN)NC1=O [Ex. 132] (H-WCVAS[dP]P[Ala(cPent)]SYCG[Dab]T[Dab][Dab][Dab][dF]L[Dab][Dab]T; disulfide 2-11; lactam 16-C) | 0.125 | 0.125 | 0.0625 | 0.1255 | 0.0625 | 0.0625 | 0.25 |  | <1 |
